Structures can show the parent of a compound that is named as a salt. Some results are limits rather than exact numbers.

Chain of isolated kinase domain of the human c-kit receptor (P10721 589-937): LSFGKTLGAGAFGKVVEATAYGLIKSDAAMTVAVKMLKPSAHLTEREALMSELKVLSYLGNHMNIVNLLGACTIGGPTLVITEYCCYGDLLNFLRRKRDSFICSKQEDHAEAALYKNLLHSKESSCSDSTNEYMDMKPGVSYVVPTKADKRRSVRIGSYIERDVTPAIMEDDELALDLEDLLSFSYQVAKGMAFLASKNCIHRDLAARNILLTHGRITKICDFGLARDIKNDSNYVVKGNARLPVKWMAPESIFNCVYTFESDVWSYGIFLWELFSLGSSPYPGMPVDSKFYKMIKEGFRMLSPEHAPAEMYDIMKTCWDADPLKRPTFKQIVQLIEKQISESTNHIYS

The first test addresses isolated kinase domain of the human c-kit receptor (Homo sapiens (Human), UniProt P10721). Description: c-Kit Fluorescence Polarization Kinase Assay. In kind it is biochemical. The following applies: 1 nM c-kit, 50 uM ATP, 45 minutes at room temperature; uncertainty +10%. As for the experimental part: c-Kit Fluorescence Polarization Kinase Assay
The c-kit assay utilized the fluorescein-labeled phosphopeptide and the anti-phosphotyrosine antibody included in the Panvera Phospho-Tyrosine Kinase Kit (Green) supplied by Invitrogen. When c-kit phosphorylated the poly Glu4Tyr, the fluorescein-labeled phosphopeptide was displaced from the anti-phosphotyrosine antibody by the phosphorylated poly Glu4Tyr, thus decreasing the FP value. The c-kit kinase reaction was incubated at room temperature for 45 minutes under the following conditions: 1 nM c-kit (ProQinase, lot SP005), 100 ug/mL poly Glu4Tyr, 50 uM ATP, 5 mM MgCl2, 1 mM DTT, 0.01% Tween-20, 1% DMSO or compound in […], pH 7.5. The kinase reaction was stopped with the addition of EDTA. The fluorescein-labeled phosphopeptide and the anti-phosphotyrosine antibody were added and incubated for 30 minutes at room temperature and fluorescence polarization was read. Data points were an average of triplicate samples. Inhibition and IC50 data analysis were done with GraphPad Prism using a non-linear regression fit with a multiparamater, sigmoidal dose-response (variable slope) equation.
The compound `CN1CCN(c2ccc(NC(=O)c3ccc(C#N)o3)c(C3=CCCCC3)c2)CC1` [Compound 11, 5-Cyano-furan-2-carboxylic acid [2-cyclohex-1-enyl-4-(4-methyl-piperazin-1-yl)-phenyl]-amide] displayed an IC50 of 150 nM. On the same count and under the same terms, in the case of `CC(=O)N1CCC(c2ccc(NC(=O)c3nc(C#N)c[nH]3)c(C3=CCS(=O)(=O)CC3)c2)CC1` [Compound 37, 4-Cyano-1H-imidazole-2-carboxylic acid [4-(1-acetyl-piperidin-4-yl)-2-(1,1-dioxo-1,2,3,6-tetrahydro-1λ^6-thiopyran-4-yl)-phenyl]-amide] it was above 250 nM; in that of `N#Cc1cnc(C(=O)Nc2ccc(C3CCN(C(=O)[C@H](O)CO)CC3)cc2C2=CCCCC2)[nH]1` [Compound 52, 5-Cyano-1H-imidazole-2-carboxylic acid{2-cyclohex-1-enyl-4-[1-(R)-(+)-(2,3-dihydroxy-propionyl)-piperidin-4-yl]-phenyl}-amide], 8 nM. On the same count and under the same terms, then `N#Cc1c[nH]c(C(=O)Nc2ccc(C3CCS(=O)(=O)CC3)cc2C2=CCCCC2)n1` [Compound 35, 4-Cyano-1H-imidazole-2-carboxylic acid [2-cyclohex-1-enyl-4-(1,1-dioxo-hexahydro-1λ^6-thiopyran-4-yl)-phenyl]-amide], with 73 nM; and `C[C@@H]1CC(c2ccc(NC(=O)c3ncc(C#N)[nH]3)c(C3=CCCCC3)c2)C[C@H](C)N1` (stereo partly drawn) [Compound 51a, 5-Cyano-1H-imidazole-2-carboxylic acid [2-cyclohex-1-enyl-4-(cis-2,6-dimethyl-piperidin-4-yl)-phenyl]-amide bis trifluoroacetic acid salt], with 4.3 nM; and `N#Cc1c[nH]c(C(=O)Nc2ccc(C3CCN(Cc4ccccn4)CC3)cc2C2=CCCCC2)n1` [Compound 21, 4-Cyano-1H-imidazole-2-carboxylic acid [2-cyclohex-1-enyl-4-(1-pyridin-2-ylmethyl-piperidin-4-yl)-phenyl]-amide trifluoroacetic acid salt], with 50 nM.

With `CN(C)CC(=O)N1CCC(c2ccc(NC(=O)c3nc(C#N)c[nH]3)c(C3=CCC(C)(C)CC3)n2)CC1` [Compound 55, 4-Cyano-1H-imidazole-2-carboxylic acid [1′-(2-dimethylamino-acetyl)-6-(4,4-dimethyl-cyclohex-1-enyl)-1′,2′,3′,4′,5′,6′-hexahydro-[2,4′]bipyridinyl-5-yl]-amide trifluoroacetic acid salt], the IC50 was found to be 12 nM. Still for that read-out and setting: in the case of `N#CCCN1CCC(c2ccc(NC(=O)c3nc(C#N)c[nH]3)c(C3=CCCCC3)c2)CC1` [Compound 27, 4-Cyano-1H-imidazole-2-carboxylic acid {4-[1-(2-cyano-ethyl)-piperidin-4-yl]-2-cyclohex-1-enyl-phenyl}-amide trifluoroacetic acid salt] it was 80 nM; in that of `CC1(C)CC=C(c2nc(C3CCN(CCS(C)(=O)=O)CC3)ccc2NC(=O)c2nc(C#N)c[nH]2)CC1` [Compound 56, 4-Cyano-1H-imidazole-2-carboxylic acid [6-(4,4-dimethyl-cyclohex-1-enyl)-1′-(2-methanesulfonyl-ethyl)-1′,2′,3′,4′,5′,6′-hexhydro-[2,4′]bipyridinyl-5-yl]-amide trifluoroacetic acid salt], 39 nM; in that of `CC(=O)N1CCC(c2ccc(NC(=O)c3nc(C#N)c[nH]3)c(C3=CCCCC3)c2)CC1` [Compound 16, 4-Cyano-1H-imidazole-2-carboxylic acid [4-(1-acetyl-piperidin-4-yl)-2-cyclohex-1-enyl-phenyl]-amide], 57 nM. Same read-out and setting: in the case of `N#Cc1c[nH]c(C(=O)Nc2ccc(C3CCN(CC(=O)O)CC3)cc2C2=CCCCC2)n1` [Compound 47, (4-{4-[(4-Cyano-1H-imidazole-2-carbonyl)-amino]-3-cyclohex-1-enyl-phenyl}-piperidin-1-yl)-acetic acid trifluoroacetic acid salt] it was 100 nM; in that of `N#Cc1c[nH]c(C(=O)Nc2ccc(C3CCN(C(=O)c4cc[n+]([O-])cc4)CC3)cc2C2=CCCCC2)n1` [Compound 41, 4-Cyano-1H-imidazole-2-carboxylic acid {2-cyclohex-1-enyl-4-[1-(1-oxy-pyridine-4-carbonyl)-piperidin-4-yl]-phenyl}-amide], 35 nM. Consider `N#Cc1c[nH]c(C(=O)Nc2ccc(C3CCN(CCO)CC3)cc2C2=CCCCC2)n1` [Compound 26, 4-Cyano-1H-imidazole-2-carboxylic acid{2-cyclohex-1-enyl-4-[1-(2-hydroxy-ethyl)-piperidin-4-yl]-phenyl}-amide trifluoroacetic acid salt], for which the IC50 was 26 nM. Same read-out and setting: then `N#Cc1c[nH]c(C(=O)Nc2ccc(C3CCNCC3)cc2C2=CCCCC2)n1` [Compound 14, 4-Cyano-1H-imidazole-2-carboxylic acid (2-cyclohex-1-enyl-4-piperidin-4-yl-phenyl)-amide trifluoroacetic acid salt], with 71 nM; and `N#Cc1c[nH]c(C(=O)Nc2ccc(C3CCN(C(=O)CCN4CCOCC4)CC3)cc2C2=CCCCC2)n1` [Compound 8, 4-Cyano-1H-imidazole-2-carboxylic acid{2-cyclohex-1-enyl-4-[1-(3-morpholin-4-yl-propionyl)-piperidin-4-yl]-phenyl}-amide], with 42 nM; and `CN1CCN(c2ccc(NC(=O)c3ccc(C#N)o3)c(C3=CCOCC3)c2)CC1` [Compound 12], with above 250 nM. Take `CC(C)(N)CC(=O)N1CCC(c2ccc(NC(=O)c3nc(C#N)c[nH]3)c(C3=CCCCC3)c2)CC1` [Compound 48, 4-Cyano-1H-imidazole-2-carboxylic acid {4-[1-(3-amino-3-methyl-butyryl)-piperidin-4-yl]-2-cyclohex-1-enyl-phenyl}-amide trifluoroacetic acid salt]: the IC50 is 5 nM. Consider `N#Cc1c[nH]c(C(=O)Nc2ccc(C3CCNCC3)cc2C2=CCCCC2)c1` [Compound 13, 4-Cyano-1H-pyrrole-2-carboxylic acid (2-cyclohex-1-enyl-4-piperidin-4-yl-phenyl)-amide trifluoroacetic acid salt], for which the IC50 stood at 260 nM.

In a further test the test system is BR-1 cells. In words: c-Kit BR-1 Assay (inhibition of BR-1 cell proliferation). In kind it is cell-based. The conditions noted are these: Canis lupus familiaris; BR-1 dog mastocytoma line, constitutive-active mutant KIT; 72 hours, Cell TiterGlo.
Method: Immediately following plating (time zero), 6 wells containing cells are treated with 100 μl of Promega Cell TiterGlo reagent and incubated 10 min with shaking. The intensity of the Cell TiterGlo signal (1 sec/well) is determined using a luminometer. The remaining cells are cultured 72 hours (37° C. and 5% CO2). Following the 72-hour growth interval, 100 μl of Promega Cell TiterGlo reagent is added to each well. The plates are incubated an additional 10 minutes with shaking and the intensity of the Cell TiterGlo signal (1 sec/well) is determined using a luminometer. Cell proliferation is defined by the difference between the time zero and time 72 hour signals.
`CN(C)CC(=O)N1CCC(c2ccc(NC(=O)c3nc(C#N)c[nH]3)c(C3=CCC(C)(C)CC3)n2)CC1` [Compound 55, 4-Cyano-1H-imidazole-2-carboxylic acid [1′-(2-dimethylamino-acetyl)-6-(4,4-dimethyl-cyclohex-1-enyl)-1′,2′,3′,4′,5′,6′-hexahydro-[2,4′]bipyridinyl-5-yl]-amide trifluoroacetic acid salt] displayed an IC50 of 250 nM. Take `CC1(C)CC=C(c2nc(C3CCN(CCS(C)(=O)=O)CC3)ccc2NC(=O)c2nc(C#N)c[nH]2)CC1` [Compound 56, 4-Cyano-1H-imidazole-2-carboxylic acid [6-(4,4-dimethyl-cyclohex-1-enyl)-1′-(2-methanesulfonyl-ethyl)-1′,2′,3′,4′,5′,6′-hexhydro-[2,4′]bipyridinyl-5-yl]-amide trifluoroacetic acid salt]: half-maximal inhibition (IC50) required 500 nM. Same read-out and setting: then `CN(C)CC(=O)N1CCC(c2ccc(NC(=O)c3nc(C#N)c[nH]3)c(C3=CCCCC3)c2)CC1` [Compound 38, 4-Cyano-1H-imidazole-2-carboxylic acid{2-cyclohex-1-enyl-4-[1-(2-dimethylamino-acetyl)-piperidin-4-yl]-phenyl}-amide], with 90 nM; and `CS(=O)(=O)CCN1CCC(c2ccc(NC(=O)c3ncc(C#N)[nH]3)c(C3=CCCCC3)n2)CC1` [Compound 58, 5-Cyano-1H-imidazole-2-carboxylic acid [6-cyclohex-1-enyl-1′-(2-methanesulfonyl-ethyl)-1′,2′,3′,4′,5′,6′-hexahydro-[2,4′]bipyridinyl-5-yl]-amide], with 1000 nM. Take `CS(=O)(=O)CCN1CCC(c2ccc(NC(=O)c3nc(C#N)c[nH]3)c(C3=CCCCC3)c2)CC1` [Compound 40, 4-Cyano-1H-imidazole-2-carboxylic acid{2-cyclohex-1-enyl-4-[1-(2-methanesulfonyl-ethyl)-piperidin-4-yl]-phenyl}-amide]: the midpoint of inhibition, the IC50, lay at 250 nM. `CC1(C)CC=C(c2nc(C3CCNCC3)ccc2NC(=O)c2nc(C#N)c[nH]2)CC1` [Compound 54, 4-Cyano-1H-imidazole-2-carboxylic acid [6-(4,4-dimethyl-cyclohex-1-enyl)-1′,2′,3′,4′,5′,6′-hexahydro-[2,4′]bipyridinyl-5-yl]-amide trifluoroacetic acid salt]: the IC50 amounted to 900 nM.

These data come from patent US8697716B2, “Method of inhibiting C-KIT kinase” (Janssen Pharmaceutica NV, priority 2006, dated 2014).
